Where a name gives a salt, the structure may show the parent alone.
Target: recombinant human PARP (Homo sapiens, UniProt P09874)
Assay: PARP inhibitory activity (In vitro assay)
Type: biochemical
Conditions: 32P-NAD, 0.05 mM NAD, activated DNA, pH8.0, 15 minutes at room temperature
Method: PARP inhibitory activity (In vitro assay)
The recombinant human PARP (5.3 mg protein/ml) was incubated with a test compound in a 100 μl reaction buffer containing an indicated concentration of 1 mCi/ml ^32P-NAD, 50 mM Tris-HCl, 25 mM MgCl2, 1 mM DTT (dithiothreitol), 0.05 mM NAD (nicotinamide adenine dinucleotide) and 1 mg/ml activated DNA, pH8.0. Incubation was carried out for 15 minutes at a room temperature, and the reaction was stopped by addition of 200 μl of ice-cold 20% tricholoroacetic acid followed by rapid filtration through GF/B filters. The […] was treated with scintillation fluid and acid-insoluble counts were measured for quantification of unit activity. PARP inhibitory activity was calculated by using the following formula: PARP inhibitory activity (%)=[1-(count obtained with test compound)/(count obtained with vehicle only)]×100

Sequence of recombinant human PARP (P09874 whole entry): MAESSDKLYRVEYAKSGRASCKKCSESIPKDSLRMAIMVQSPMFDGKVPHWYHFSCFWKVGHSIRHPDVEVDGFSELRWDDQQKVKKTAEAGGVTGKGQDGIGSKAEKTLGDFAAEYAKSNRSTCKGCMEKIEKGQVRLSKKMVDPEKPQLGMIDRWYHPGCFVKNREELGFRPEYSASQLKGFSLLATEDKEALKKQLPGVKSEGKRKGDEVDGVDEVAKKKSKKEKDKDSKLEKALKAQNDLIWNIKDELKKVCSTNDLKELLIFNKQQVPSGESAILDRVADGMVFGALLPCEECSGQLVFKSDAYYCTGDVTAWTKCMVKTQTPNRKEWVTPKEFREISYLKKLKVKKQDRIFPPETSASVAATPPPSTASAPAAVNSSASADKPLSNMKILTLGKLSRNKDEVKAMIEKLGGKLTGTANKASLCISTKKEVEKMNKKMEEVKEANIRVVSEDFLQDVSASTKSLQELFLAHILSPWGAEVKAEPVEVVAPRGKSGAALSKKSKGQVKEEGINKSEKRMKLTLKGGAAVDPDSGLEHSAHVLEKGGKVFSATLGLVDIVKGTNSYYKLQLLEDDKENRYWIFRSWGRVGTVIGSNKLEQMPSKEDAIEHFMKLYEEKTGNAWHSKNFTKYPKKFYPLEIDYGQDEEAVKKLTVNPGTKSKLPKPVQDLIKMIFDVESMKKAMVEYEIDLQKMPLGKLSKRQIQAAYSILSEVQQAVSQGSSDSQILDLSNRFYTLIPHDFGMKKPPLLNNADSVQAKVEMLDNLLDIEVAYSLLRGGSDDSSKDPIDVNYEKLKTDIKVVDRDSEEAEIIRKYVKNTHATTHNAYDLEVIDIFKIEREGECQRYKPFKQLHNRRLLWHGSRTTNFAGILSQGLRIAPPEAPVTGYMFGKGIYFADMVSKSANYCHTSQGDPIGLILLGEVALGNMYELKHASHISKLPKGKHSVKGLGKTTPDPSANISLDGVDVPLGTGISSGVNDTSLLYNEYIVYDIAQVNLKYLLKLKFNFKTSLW

IC50 [µM]	SMILES
< 0.1	Cc1ccc(C2CCN(Cc3ccc4c5c(c(=O)[nH]c4c3)CCCC5)CC2)cc1 [Example 30, 3-{[4-(4-methylphenyl)-1-piperidyl]methyl}-7,8,9,10-tetrahydro-6(5H)-phenanthridinone hydrochloride]
< 0.1	O=c1[nH]c2c(Oc3ccccn3)cccc2c2c1CCCC2 [Example 42]
< 0.1	O=c1[nH]c2cc(CN3CCN(c4ccc(Cl)cn4)CC3)ccc2c2ccccc12 [Example 52, 3-{[4-(5-chloro-2-pyridyl)-1-piperazinyl]methyl}-6(5H)-phenanthridinone dihydrochloride]
< 0.1	O=c1[nH]c2cc(CN3CCCCC3)ccc2c2ccccc12 [Example 60, 3-(1-piperidylmethyl)-6(5H)-phenanthridinone]
< 0.1	Cc1ccc(C2CCN(Cc3ccc4c(c3)[nH]c(=O)c3ccccc34)CC2)nc1 [Example 63, 3-{[4-(5-methyl-2-pyridyl)-1-piperidyl]methyl}-6(5H)-phenanthridinone]

SMILES	IC50 [µM]
O=c1[nH]c2ccc(CCCN3CC=C(c4ccc(F)cc4)CC3)cc2c2ccccc12 [Example 2, 2-{3-[4-(4-fluorophenyl)-3,6-dihydro-1 (2H)-pyridyl]propyl}-6(5H)-phenanthridinone]	< 0.1
O=c1[nH]c2cc(CN3CC=C(c4ccc(Cl)cc4)CC3)ccc2c2c1CCCC2 [Example 15, 3-{[4-(4-Chlorophenyl)-3,6-dihydro-1(2H)-pyridyl]methyl}-7,8,9,10-tetrahydro-6(5H)-phenanthridinone]	< 0.1
O=c1[nH]c2cc(CN3CCC(O)(c4ccccc4)CC3)ccc2c2c1CCCC2 [Example 35, 3-[(4-hydroxy-4-phenyl-1-piperidyl)methyl]-7,8,9,10-tetrahydro-6(5H)-phenanthridinone hydrochloride]	< 0.1

— patent US20050171101A1 (Fujisawa Pharmaceutical Co. Ltd., priority 2002, published 2005)
